Assay results from patent US8338434B2, “Inhibitors of Akt activity” (GlaxoSmithKline LLC, priority 2007, dated 2012).

Target: T1, full length AKT1 (Homo sapiens, UniProt P31749)
T1 construct: His tag (from vector pFastBacHTb; purified on Nickel Sepharose) (N); made in house; host or cells: baculovirus; Sf9 / T. ni insect cells
Assay: Full-Length AKT Enzyme Assay (substrate phosphorylation, SPA)
Type: biochemical
Details: in at least one experimental run; pIC50 = -log(IC50), IC50 in molar units; 10 nM activated AKT enzyme, 4 uM ATP, 8 uM peptide; read-out: pIC50 value against full length AKT1 (converted)
Excerpt: Cloning of Full-Length Human (FL) AKT1:
Full-length human AKT1 gene was amplified by PCR from a plasmid containing myristylated-AKT1-ER (gift from Robert T. Abraham, Duke University under MTA, described in Klippel et al. in Molecular and Cellular Biology 1998 Volume 18 p. 5699) using the 5′ primer: SEQ. ID NO: 2 5′ […] 3′ and the 3′ primer: SEQ. ID NO: 3 […] 3′. The 5′ primer included a BamHI site and the 3′primer included an XhoI site for cloning purposes. The resultant PCR product was subcloned in pcDNA3 as a BamHI/XhoI fragment. A mutation in the sequence (TGC) coding for a Cysteine^25 was converted to the wild-type AKT1 sequence (CGC) coding for an Arginine^25 by site-directed mutagenesis using the QuikChange® Site Directed Mutagenesis Kit (Stratagene). The AKT1 mutagenic primer: SEQ. ID NO: 4 5′ […] and selection primer: SEQ. […] For expression/purification purposes, AKT1 was isolated as a BamHI/XhoI fragment and cloned into the BamHI/XhoI sites of pFastbacHTb (Invitrogen).
Expression was done using the BAC-to-BAC Baculovirus Expression System from Invitrogen (catalog #10359-016). […]
Compounds of the present invention were tested for AKT 1, 2, and 3 protein serine kinase inhibitory activity in substrate phosphorylation assays. […] Substrate phosphorylation was detected by the following procedure. […]

T1 sequence (P31749 whole entry): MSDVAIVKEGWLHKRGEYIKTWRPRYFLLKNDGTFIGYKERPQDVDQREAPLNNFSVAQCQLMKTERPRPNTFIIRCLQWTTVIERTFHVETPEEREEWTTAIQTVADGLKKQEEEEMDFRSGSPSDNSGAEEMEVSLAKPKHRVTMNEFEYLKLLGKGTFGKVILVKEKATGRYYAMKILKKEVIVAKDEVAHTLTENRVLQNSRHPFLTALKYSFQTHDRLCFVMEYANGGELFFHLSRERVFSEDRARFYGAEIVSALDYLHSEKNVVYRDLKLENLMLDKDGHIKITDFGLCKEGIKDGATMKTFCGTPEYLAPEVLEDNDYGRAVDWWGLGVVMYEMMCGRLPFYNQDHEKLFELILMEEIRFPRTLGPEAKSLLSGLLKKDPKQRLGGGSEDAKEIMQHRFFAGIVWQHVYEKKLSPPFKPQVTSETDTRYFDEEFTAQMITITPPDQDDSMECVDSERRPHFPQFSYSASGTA

- IC50: 10 nM
SMILES: Cn1nccc1-c1ccc(C(=O)NC(CN)Cc2ccccc2)cn1 (stereo not shown) [Example 2, N-[2-amino-1-(phenylmethyl)ethyl]-6-(1-methyl-1H-pyrazol-5-yl)-3-pyridinecarboxamide]
